The values below come from patent US20240024395A1 (priority 2020, published 2024).

Data set [1] relates to mycotoxicosis due to DON ingestion. Also on record: Stomach ulcer: key to the marks not given beside the values. To be noted: pig, in vivo.
The conditions of data set [2]: pig, in vivo, 0.05 mg/kg.

For `CC1=C[C@H]2O[C@@H]3[C@H](O)C[C@](C)([C@@]2(CO)[C@H](O)C1=O)[C@]31CO1` [DON, deoxynivalenol], in data set [1], the “ADG1 average daily weight gain over the first 15 days of the challenge” value was determined as 0.54, the “ADG average daily weight gain over the last 13 days of the challenge” value turned out to be 0.81, the Kidneys result is “Pail” and the Liver colour entry is recorded as “Pail”. Moreover, in data set [1], the Stomach inflammation entry is given as “++/−”; the Stomach ulcer result is “++”; the “villus/crypt ratio, average” value worked out at 1.09. For the same molecule, in data set [1] (po, 5.4 mg/kg), the weight begin came to 12.69 and the weight end amounted to 31.75. For the same molecule, in data set [2], the “AUC0→∞ of unbound DON” value was 187 ± 33 and the “Cmax of unbound DON” value was 30.8 ± 2.5.
